In patent US6677310B1, “Ring-expanded nucleosides and nucleotides” (Nabi, priority 1999, dated 2004):
Read-outs that look alike come from different tables or passages of the source.

Experiments:
[1] = system: T-47D; assay: SRB anti-cancer assay, Breast Cancer; assay type: cell-based, human; settings: T-47D (Breast Cancer), 48 h; for CC50: read-out: LC50 (the source's name)
[2] = system: K-562; assay: SRB anti-cancer assay, Leukemia; assay type: cell-based, human; settings: K-562 (Leukemia), 48 h
[3] = system: HCT-15; assay: SRB anti-cancer assay, Colon Cancer; assay type: cell-based, human; settings: HCT-15 (Colon Cancer), 48 h; for CC50: read-out: LC50 (the source's name)
[4] = system: EKVX; assay type: cell-based, human; settings: EKVX (Non-Small Cell Lung Cancer), 48 h; for CC50: read-out: LC50 (the source's name)
[5] = system: HBV proteins (HBsAg, HBcAg, HBeAg); assay: HBV protein levels in 2.2.15 cells (semi-quantitative EIA); assay type: cell-based, Hepatitis B virus; settings: 10 μM, day 9, 2.2.15 cells
[6] = system: 786-0; assay: SRB anti-cancer assay, Renal Cancer; assay type: cell-based, human; settings: 786-0 (Renal Cancer), 48 h
[7] = system: cytomegalovirus (CMV); assay: Antiviral test against CMV; assay type: cell-based
Description: These compounds were also tested for their effects on HIV (Weislow, O. , et al., J. Natl. Cancer Inst., 81:577-586, 1989), herpes simplex virus (HSV)-1, HSV-2, cytomegalovirus (CMV), Varicella Zoster virus (VZV) and Epstein-Barr virus (EBV) replication (National Institute of Allergy and Infectious Diseases (NIAID), NIH, Bethesda, Md.).

[8] = system: ACHN; assay: SRB anti-cancer assay, Renal Cancer; assay type: cell-based, human; settings: 48 h; for CC50: read-out: LC50 (the source's name)
[9] = system: 2.2.15 cells; assay: Toxicity in confluent 2.2.15 cells (neutral red dye uptake); assay type: cell-based, human
Description: Anti-HBV activity and the toxicity against confluent 2.2.15 cells were determined by the previously described procedure (Korba, B. E., et al. Antivir. Res., 19:55-70, 1992; Korba, B. E., et al. Antivir. Res., 15:217-228, 1991). Briefly, confluent cultures of HBV transfected 2.2.15 cells were maintained on either 96-well or 24-well flat-bottomed tissue culture plates in RPMI 1640 medium with 2% fetal bovine serum (FBS). The cells were treated with test compounds daily for nine consecutive days. […] Cellular toxicity against separate cultures of confluent 2.2.15 cells was measured after treatment with the compounds for nine days under identical culture conditions as those used for the antiviral assay (Korba, B. E., et al. Antivir. Res., 19:55-70, 1992). Uptake of neutral red dye by treated cells was compared with dye uptake by untreated control cells (Korba, B. E., et al. Antivir. Res., 19:55-70, 1992).

[10] = system: RPMI-8226; assay: SRB anti-cancer assay, Leukemia; assay type: cell-based, human; settings: RPMI-8226 (Leukemia), 48 h; for CC50: read-out: LC50 (the source's name)
[11] = system: M14; assay: SRB anti-cancer assay, Melanoma; assay type: cell-based, human; settings: 48 h; for CC50: read-out: LC50 (the source's name)
[12] = system: MDA-MB- 231/ATCC; assay: SRB anti-cancer assay, Breast Cancer; assay type: cell-based, human; settings: MDA-MB- 231/ATCC (Breast Cancer), 48 h; for CC50: read-out: LC50 (the source's name)
[13] = system: UACC-257; assay: SRB anti-cancer assay, Melanoma; assay type: cell-based, human; settings: UACC-257 (Melanoma), 48 h; for CC50: read-out: LC50 (the source's name)
[14] = system: HCT-116; assay: SRB anti-cancer assay, Colon Cancer; assay type: cell-based, human; settings: HCT-116 (Colon Cancer), 48 h; for CC50: read-out: LC50 (the source's name)
[15] = system: A498; assay: SRB anti-cancer assay, Renal Cancer; assay type: cell-based, human; settings: 48 h; for CC50: read-out: LC50 (the source's name)
[16] = system: SR; assay: SRB anti-cancer assay, Leukemia; assay type: cell-based, human; settings: 48 h
[17] = system: SK-MEL-2; assay: SRB anti-cancer assay, Melanoma; assay type: cell-based, human; settings: SK-MEL-2 (Melanoma), 48 h
[18] = system: HS 578T; assay: SRB anti-cancer assay, Breast Cancer; assay type: cell-based, human; settings: HS 578T (Breast Cancer), 48 h
[19] = system: SK-MEL-5; assay: SRB anti-cancer assay, Melanoma; assay type: cell-based, human; settings: SK-MEL-5 (Melanoma), 48 h
[20] = system: TK-10; assay: SRB anti-cancer assay, Renal Cancer; assay type: cell-based, human; settings: TK-10 (Renal Cancer), 48 h
[21] = system: LOX IMVI; assay: SRB anti-cancer assay, Melanoma; assay type: cell-based, human; settings: 48 h
[22] = read-out: LC50 (the source's name)
[23] = confluent 2.2.15 cells, 9 days, neutral red dye uptake, read-out: CC50

## N=c1[nH]c(=O)c2ncn([C@@H]3O[C@H](CO)[C@@H](O)[C@H]3O)c2c(=O)[nH]1 [Compound 14-1, 6-Imino-6H-1-β-D-ribofuranosyl-4,5,7,8-tetrahydroimidazo[4,5-e][1,3]diazepine-4,8-dione]
[1]
  GI50: > 100 µM
  TGI: >100 µM
  CC50: > 100 µM
[2]
  GI50: > 100 µM
  TGI: >100 µM
[2]; [22]
  CC50: > 100 µM
[3]
  GI50: > 100 µM
  TGI: >100 µM
  CC50: > 100 µM
[4]
  GI50: > 100 µM
  TGI: >100 µM
  CC50: > 100 µM
[5]
  HBcAg, percentage of control: 75 ± 4%
  HBeAg, percentage of control: 50 ± 5 %
  HBsAg, percentage of control: 67 ± 6%
[6]
  GI50: > 100 µM
  TGI: >100 µM
[6]; [22]
  CC50: > 100 µM
[7]
  antiviral activity against CMV: no antiviral activity
[8]
  GI50: > 100 µM
  TGI: >100 µM
  CC50: > 100 µM
[9]; 2.2.15 cells, Example 13, read-out: CC50 (cellular toxicity)
  CC50: 2400 µM
[9]; [23]
  CC50: 2430 µM
[10]
  GI50: > 100 µM
  TGI: >100 µM
  CC50: > 100 µM
[11]
  GI50: > 100 µM
  TGI: >100 µM
  CC50: > 100 µM
[12]
  TGI: >100 µM
  CC50: > 100 µM
[13]
  GI50: > 100 µM
  TGI: >100 µM
  CC50: > 100 µM
[14]
  GI50: > 100 µM
  TGI: >100 µM
  CC50: > 100 µM
[15]
  GI50: > 100 µM
  TGI: >100 µM
  CC50: > 100 µM
[16]
  GI50: > 100 µM
  LC50 (concentration killing 50% of cells): > 100 µM
  TGI: >100 µM

## N=c1nc(N)c2ncn([C@@H]3O[C@H](CO)[C@@H](O)[C@H]3O)c2c(N)n1 [Compound 14-2, 4,8-Diamino-6H-6-imino-1-β-D-ribofuranosylimidazo[4,5-e][1,3]diazepine]
[1]
  GI50: 13.3 µM
  TGI: 39.6 µM
  CC50: > 100 µM
[17]
  GI50: 15.4 µM
  LC50: 76.9 µM
  TGI: 34.5 µM
[3]
  GI50: 11.8 µM
  TGI: 27.4 µM
  CC50: 63.5 µM
[4]
  GI50: 14.3 µM
  TGI: 27.3 µM
  CC50: 52.3 µM
[5]
  HBcAg, percentage of control: 109 ± 6%
  HBeAg, percentage of control: 8 ± 3 %
  HBsAg, percentage of control: 108 ± 18%
[6]
  GI50: 15.7 µM
  TGI: 47 µM
[7]
  antiviral activity against CMV: no antiviral activity
[8]
  GI50: 12.3 µM
  TGI: 27.2 µM
  CC50: 59.9 µM
[18]
  GI50: 7.58 µM
  TGI: 31.6 µM
[18]; [22]
  CC50: > 100 µM
[9]; [23]
  CC50: 501 µM
[19]
  GI50: 10.8 µM
  TGI: 23.5 µM
[19]; [22]
  CC50: 50.9 µM
[10]
  GI50: 32.8 µM
  TGI: >100 µM
  CC50: > 100 µM
[20]
  GI50: 15.1 µM
  TGI: 31.2 µM
[20]; [22]
  CC50: 64.6 µM
[11]
  GI50: 11.5 µM
  TGI: 24.3 µM
  CC50: 51.1 µM
[12]
  GI50: 23.8 µM
  TGI: 52.8 µM
  CC50: > 100 µM
[13]
  GI50: 12.7 µM
  TGI: 25.8 µM
  CC50: 52.3 µM
[21]
  GI50: 7.16 µM
  TGI: 21.3 µM
[21]; [22]
  CC50: 51.2 µM
[14]
  GI50: 13.3 µM
  TGI: 26.8 µM
  CC50: 54.2 µM
[15]
  GI50: 23.1 µM
  TGI: 74.7 µM
  CC50: > 100 µM
[16]
  GI50: > 100 µM
  LC50 (concentration killing 50% of cells): > 100 µM
  TGI: >100 µM
